The values that follow come from ChEMBL document CHEMBL3132769, “Fragment growing to retain or alter the selectivity of anchored kinase hinge-binding fragments” (Medchemcomm, 2014).

The structures appear in SMILES notation.

Test [1] addresses Fibroblast growth factor receptor 3 (Homo sapiens) (UniProt P22607). Put plainly: Inhibition of human FGFR3 catalytic domain expressed in baculovirus assessed as substrate phosphorylation using fluorescence-labelled peptides as substrate at 0.1 uM after 90 mins by microfluidic peptide phosphorylation assay.
For test [2], the target named is RAF proto-oncogene serine/threonine-protein kinase (Homo sapiens) (UniProt P04049). Put plainly: Inhibition of human truncated c-Raf expressed in baculovirus assessed as substrate phosphorylation using fluorescence-labelled peptides as substrate at 420 uM after 90 mins by microfluidic peptide phosphorylation assay.
RAF proto-oncogene serine/threonine-protein kinase (Homo sapiens), sequence (P04049 whole entry, the tested form may be a part): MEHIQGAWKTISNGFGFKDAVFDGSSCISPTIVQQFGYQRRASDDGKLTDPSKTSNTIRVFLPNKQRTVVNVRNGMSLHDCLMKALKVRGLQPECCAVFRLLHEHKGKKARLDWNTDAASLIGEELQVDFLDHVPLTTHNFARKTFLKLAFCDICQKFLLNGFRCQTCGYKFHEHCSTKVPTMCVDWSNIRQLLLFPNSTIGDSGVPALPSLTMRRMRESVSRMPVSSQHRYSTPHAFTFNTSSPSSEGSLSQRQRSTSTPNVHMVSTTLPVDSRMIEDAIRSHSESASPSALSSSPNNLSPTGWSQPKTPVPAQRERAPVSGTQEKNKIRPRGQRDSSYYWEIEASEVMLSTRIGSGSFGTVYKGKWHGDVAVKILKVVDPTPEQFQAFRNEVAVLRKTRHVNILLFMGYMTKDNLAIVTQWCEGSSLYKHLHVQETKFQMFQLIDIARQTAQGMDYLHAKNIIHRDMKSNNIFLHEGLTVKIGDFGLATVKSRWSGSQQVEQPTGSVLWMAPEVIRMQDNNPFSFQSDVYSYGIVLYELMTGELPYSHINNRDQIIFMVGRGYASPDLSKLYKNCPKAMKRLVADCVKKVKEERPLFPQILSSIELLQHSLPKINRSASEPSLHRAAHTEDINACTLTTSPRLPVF
The target of test [3] is Fibroblast growth factor receptor 3 (Homo sapiens) (UniProt P22607). Briefly: Inhibition of human FGFR3 catalytic domain expressed in baculovirus assessed as substrate phosphorylation using fluorescence-labelled peptides as substrate at 420 uM after 90 mins by microfluidic peptide phosphorylation assay.
Fibroblast growth factor receptor 3 (Homo sapiens), sequence (P22607 23-806 limits assumed): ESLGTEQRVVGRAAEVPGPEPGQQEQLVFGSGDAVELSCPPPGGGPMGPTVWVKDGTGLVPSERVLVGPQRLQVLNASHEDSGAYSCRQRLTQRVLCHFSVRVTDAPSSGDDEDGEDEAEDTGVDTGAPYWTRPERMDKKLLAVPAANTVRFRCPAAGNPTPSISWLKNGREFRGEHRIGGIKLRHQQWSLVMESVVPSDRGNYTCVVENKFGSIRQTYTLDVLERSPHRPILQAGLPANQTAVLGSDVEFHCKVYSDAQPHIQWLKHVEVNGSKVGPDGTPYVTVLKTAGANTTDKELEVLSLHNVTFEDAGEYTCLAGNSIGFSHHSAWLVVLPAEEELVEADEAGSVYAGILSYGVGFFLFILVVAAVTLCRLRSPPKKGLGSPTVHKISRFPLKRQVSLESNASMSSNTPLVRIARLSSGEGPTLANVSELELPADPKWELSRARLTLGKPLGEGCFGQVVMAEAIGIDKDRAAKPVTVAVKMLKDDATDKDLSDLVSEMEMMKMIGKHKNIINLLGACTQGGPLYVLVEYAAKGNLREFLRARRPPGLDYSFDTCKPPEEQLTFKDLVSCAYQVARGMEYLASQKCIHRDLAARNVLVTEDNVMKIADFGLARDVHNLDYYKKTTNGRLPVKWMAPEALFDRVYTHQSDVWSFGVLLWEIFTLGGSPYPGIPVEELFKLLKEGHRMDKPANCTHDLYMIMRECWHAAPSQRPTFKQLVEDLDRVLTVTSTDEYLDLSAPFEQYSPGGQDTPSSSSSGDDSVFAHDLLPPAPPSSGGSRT
The target of test [4] is Serine/threonine-protein kinase Chk2 (Homo sapiens) (UniProt O96017). Put plainly: Inhibition of human full length CHK2 expressed in baculovirus assessed as substrate phosphorylation using fluorescence-labelled peptides as substrate at 8 uM after 90 mins by microfluidic peptide phosphorylation assay.
Serine/threonine-protein kinase Chk2 (Homo sapiens), sequence (O96017 whole entry): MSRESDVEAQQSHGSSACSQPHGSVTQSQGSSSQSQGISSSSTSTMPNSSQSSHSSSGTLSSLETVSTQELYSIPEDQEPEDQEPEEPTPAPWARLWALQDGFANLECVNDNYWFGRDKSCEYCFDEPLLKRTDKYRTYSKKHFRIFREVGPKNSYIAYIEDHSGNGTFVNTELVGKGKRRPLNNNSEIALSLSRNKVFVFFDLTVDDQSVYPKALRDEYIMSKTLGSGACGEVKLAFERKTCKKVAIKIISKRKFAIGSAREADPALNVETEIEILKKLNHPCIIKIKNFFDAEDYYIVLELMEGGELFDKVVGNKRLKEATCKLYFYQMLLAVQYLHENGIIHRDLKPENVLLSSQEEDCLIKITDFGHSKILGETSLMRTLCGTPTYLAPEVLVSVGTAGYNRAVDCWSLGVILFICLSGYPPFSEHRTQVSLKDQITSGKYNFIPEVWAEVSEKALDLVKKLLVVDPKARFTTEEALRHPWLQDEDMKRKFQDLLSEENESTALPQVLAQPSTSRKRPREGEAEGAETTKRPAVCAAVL
The target of test [5] is MAP kinase-activated protein kinase 2 (Homo sapiens) (UniProt P49137). Briefly: Inhibition of human full length MAPKAPK2 expressed in baculovirus assessed as substrate phosphorylation using fluorescence-labelled peptides as substrate at 8 uM after 90 mins by microfluidic peptide phosphorylation assay.
Test [6] concerns the target Protein kinase C alpha type (Homo sapiens) (UniProt P17252). Briefly: Inhibition of human truncated PKC alpha expressed in baculovirus assessed as substrate phosphorylation using fluorescence-labelled peptides as substrate at 8 uM after 90 mins by microfluidic peptide phosphorylation assay.
Test [7] addresses Glycogen synthase kinase-3 beta (Homo sapiens) (UniProt P49841). Briefly: Inhibition of human full length GSK-3 beta expressed in baculovirus assessed as substrate phosphorylation using fluorescence-labelled peptides as substrate at 0.06 uM after 90 mins by microfluidic peptide phosphorylation assay.
Test [8] deals with T1, Serine/threonine-protein kinase D1 (Homo sapiens) (UniProt Q15139).
T1 sequence (whole entry): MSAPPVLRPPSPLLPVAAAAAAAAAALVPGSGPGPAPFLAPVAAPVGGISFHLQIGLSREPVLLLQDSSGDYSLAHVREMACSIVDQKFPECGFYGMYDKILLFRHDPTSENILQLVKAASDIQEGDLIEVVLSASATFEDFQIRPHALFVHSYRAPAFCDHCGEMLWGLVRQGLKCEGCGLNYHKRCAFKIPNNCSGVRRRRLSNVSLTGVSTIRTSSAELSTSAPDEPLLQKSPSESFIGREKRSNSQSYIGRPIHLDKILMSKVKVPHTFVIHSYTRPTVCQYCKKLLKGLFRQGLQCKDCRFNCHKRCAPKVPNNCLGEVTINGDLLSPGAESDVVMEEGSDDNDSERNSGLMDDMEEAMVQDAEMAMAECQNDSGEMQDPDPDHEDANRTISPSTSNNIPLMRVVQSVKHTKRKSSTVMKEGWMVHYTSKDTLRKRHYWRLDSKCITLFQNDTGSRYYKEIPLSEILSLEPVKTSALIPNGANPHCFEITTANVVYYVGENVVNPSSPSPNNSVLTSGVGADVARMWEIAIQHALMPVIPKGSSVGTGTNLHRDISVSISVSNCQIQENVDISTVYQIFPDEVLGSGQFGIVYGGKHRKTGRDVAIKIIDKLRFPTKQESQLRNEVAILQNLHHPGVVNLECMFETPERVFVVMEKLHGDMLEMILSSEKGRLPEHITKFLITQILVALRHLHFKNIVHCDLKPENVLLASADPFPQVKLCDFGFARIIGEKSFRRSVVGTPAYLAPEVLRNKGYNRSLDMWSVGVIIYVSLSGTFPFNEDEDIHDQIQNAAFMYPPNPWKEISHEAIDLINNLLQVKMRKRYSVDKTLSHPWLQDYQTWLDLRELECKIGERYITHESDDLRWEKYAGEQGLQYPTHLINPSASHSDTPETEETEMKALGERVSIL
Briefly: Inhibition of human full length PKD1 expressed in baculovirus assessed as substrate phosphorylation using fluorescence-labelled peptides as substrate at 0.06 uM after 90 mins by microfluidic peptide phosphorylation assay.

Test [9] addresses Serine/threonine-protein kinase MARK1 (Homo sapiens) (UniProt Q9P0L2). Briefly: Inhibition of human full length MARK1 expressed in baculovirus assessed as substrate phosphorylation using fluorescence-labelled peptides as substrate at 2 uM after 90 mins by microfluidic peptide phosphorylation assay.
Test [10] deals with Ribosomal protein S6 kinase alpha-5 (Homo sapiens) (UniProt O75582). Briefly: Inhibition of human full length MSK1 expressed in baculovirus assessed as substrate phosphorylation using fluorescence-labelled peptides as substrate at 2 uM after 90 mins by microfluidic peptide phosphorylation assay.
Ribosomal protein S6 kinase alpha-5 (Homo sapiens), sequence (O75582 whole entry, looked up, the tested form may be a part): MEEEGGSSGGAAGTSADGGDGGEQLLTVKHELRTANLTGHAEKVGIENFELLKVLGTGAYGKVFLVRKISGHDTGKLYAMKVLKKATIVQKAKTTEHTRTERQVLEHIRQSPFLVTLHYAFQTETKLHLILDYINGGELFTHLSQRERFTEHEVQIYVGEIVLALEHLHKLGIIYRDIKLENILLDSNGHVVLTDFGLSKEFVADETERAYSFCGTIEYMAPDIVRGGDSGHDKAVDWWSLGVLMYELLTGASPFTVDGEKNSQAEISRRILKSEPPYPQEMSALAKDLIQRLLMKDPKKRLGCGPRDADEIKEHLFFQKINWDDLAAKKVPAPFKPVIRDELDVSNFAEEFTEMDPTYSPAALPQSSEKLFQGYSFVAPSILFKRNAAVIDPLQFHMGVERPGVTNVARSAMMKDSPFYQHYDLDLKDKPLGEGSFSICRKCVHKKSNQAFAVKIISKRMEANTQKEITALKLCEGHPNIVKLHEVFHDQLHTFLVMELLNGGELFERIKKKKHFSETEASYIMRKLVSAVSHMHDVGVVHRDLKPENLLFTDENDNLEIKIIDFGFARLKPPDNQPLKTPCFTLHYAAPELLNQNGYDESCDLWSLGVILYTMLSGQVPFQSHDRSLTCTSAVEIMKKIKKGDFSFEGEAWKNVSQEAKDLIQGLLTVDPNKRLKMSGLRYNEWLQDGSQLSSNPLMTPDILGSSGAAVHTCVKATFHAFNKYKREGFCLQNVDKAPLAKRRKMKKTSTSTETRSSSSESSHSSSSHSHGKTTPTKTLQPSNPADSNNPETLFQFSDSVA
The target of test [11] is Tyrosine-protein kinase Fer (Homo sapiens) (UniProt P16591). Put plainly: Inhibition of human FER catalytic domain expressed in baculovirus assessed as substrate phosphorylation using fluorescence-labelled peptides as substrate at 2 uM after 90 mins by microfluidic peptide phosphorylation assay.
Test [12] concerns the target MAP kinase-activated protein kinase 3 (Homo sapiens) (UniProt Q16644). Put plainly: Inhibition of human full length MAPKAPK3 expressed in Escherichia coli cell assessed as substrate phosphorylation using fluorescence-labelled peptides as substrate at 70 uM after 90 mins by microfluidic peptide phosphorylation assay.
Test [13] concerns the target T2, Cytoplasmic tyrosine-protein kinase BMX (Homo sapiens) (UniProt P51813).
T2 sequence (whole entry): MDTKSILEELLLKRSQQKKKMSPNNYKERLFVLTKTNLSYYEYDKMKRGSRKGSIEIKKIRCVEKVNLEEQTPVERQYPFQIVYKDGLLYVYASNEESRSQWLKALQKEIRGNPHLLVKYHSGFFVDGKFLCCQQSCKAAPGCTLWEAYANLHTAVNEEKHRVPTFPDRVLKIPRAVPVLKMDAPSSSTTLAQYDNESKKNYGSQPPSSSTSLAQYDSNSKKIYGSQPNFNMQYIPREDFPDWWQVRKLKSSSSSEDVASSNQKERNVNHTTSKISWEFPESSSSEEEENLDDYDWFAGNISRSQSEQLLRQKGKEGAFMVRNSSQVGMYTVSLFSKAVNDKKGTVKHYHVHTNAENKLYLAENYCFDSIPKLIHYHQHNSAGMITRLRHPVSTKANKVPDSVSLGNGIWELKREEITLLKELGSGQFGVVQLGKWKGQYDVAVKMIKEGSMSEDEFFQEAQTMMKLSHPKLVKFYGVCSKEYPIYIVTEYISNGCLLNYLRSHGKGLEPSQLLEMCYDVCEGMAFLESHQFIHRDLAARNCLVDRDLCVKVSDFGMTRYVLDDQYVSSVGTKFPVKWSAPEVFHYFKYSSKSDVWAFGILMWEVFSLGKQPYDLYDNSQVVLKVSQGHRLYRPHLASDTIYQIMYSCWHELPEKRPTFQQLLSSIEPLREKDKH
Briefly: Inhibition of human full length BMX expressed in baculovirus assessed as substrate phosphorylation using fluorescence-labelled peptides as substrate at 70 uM after 90 mins by microfluidic peptide phosphorylation assay.

The test system of test [14] is Tyrosine-protein kinase ABL1 (Homo sapiens), P00519 [H396P]. Put plainly: Inhibition of human truncated ABL H396P mutant expressed in baculovirus assessed as substrate phosphorylation using fluorescence-labelled peptides as substrate at 70 uM after 90 mins by microfluidic peptide phosphorylation assay.

Glycogen synthase kinase-3 beta (Homo sapiens), sequence (P49841 whole entry, looked up): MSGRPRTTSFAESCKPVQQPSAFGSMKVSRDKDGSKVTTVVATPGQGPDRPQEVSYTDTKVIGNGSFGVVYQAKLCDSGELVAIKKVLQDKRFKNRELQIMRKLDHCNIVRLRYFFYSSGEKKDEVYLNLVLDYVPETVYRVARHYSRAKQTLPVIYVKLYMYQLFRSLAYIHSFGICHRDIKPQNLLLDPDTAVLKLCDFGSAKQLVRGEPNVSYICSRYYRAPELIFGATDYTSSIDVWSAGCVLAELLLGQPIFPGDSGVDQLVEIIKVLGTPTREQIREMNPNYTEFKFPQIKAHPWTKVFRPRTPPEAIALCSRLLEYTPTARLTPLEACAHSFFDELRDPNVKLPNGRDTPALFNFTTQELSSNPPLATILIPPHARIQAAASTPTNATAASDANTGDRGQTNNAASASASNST
Serine/threonine-protein kinase MARK1 (Homo sapiens), sequence (Q9P0L2 whole entry, looked up): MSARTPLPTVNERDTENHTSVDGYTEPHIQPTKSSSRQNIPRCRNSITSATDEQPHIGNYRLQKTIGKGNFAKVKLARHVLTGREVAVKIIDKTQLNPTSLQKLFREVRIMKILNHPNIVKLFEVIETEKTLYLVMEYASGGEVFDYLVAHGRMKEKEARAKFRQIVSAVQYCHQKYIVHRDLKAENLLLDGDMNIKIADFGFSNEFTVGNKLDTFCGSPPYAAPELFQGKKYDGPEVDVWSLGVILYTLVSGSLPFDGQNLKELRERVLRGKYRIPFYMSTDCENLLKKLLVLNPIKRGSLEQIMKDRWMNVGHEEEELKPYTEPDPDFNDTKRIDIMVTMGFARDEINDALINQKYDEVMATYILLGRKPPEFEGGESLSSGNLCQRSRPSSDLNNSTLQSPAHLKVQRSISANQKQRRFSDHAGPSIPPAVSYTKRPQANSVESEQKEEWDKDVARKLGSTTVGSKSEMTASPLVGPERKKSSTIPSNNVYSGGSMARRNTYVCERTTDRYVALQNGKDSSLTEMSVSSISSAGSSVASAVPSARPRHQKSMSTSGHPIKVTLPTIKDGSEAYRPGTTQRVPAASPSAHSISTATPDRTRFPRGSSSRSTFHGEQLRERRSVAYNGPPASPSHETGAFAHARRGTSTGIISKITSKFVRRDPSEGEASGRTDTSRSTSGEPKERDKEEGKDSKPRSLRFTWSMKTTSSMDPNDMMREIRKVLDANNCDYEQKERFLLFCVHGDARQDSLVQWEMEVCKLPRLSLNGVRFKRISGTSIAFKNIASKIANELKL
MAP kinase-activated protein kinase 3 (Homo sapiens), sequence (Q16644 whole entry, looked up): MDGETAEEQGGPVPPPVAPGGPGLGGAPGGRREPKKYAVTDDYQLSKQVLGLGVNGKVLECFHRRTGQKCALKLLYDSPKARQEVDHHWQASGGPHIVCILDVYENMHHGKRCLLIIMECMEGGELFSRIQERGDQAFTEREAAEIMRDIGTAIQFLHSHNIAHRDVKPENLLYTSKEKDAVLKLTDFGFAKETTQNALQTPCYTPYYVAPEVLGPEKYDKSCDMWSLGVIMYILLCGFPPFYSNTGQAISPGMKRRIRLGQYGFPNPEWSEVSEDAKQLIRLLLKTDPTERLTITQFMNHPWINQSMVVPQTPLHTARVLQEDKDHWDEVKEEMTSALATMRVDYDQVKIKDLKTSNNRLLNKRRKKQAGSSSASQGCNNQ

As a reminder, the inhibition is the change of the read-out against control, counted positive when it falls. As for `C[C@H](CN(C)C)Oc1nc(Nc2cc3cccc(Cl)c3cn2)cnc1C#N`, the inhibition in [1] stood at 5.5%.

For `c1nc(N2CCOCC2)c2nc[nH]c2n1`, the values for the inhibition in test [2] and in [3] were 52% and 95%, respectively.

As to `NCC1CCN(c2ncnc3[nH]ccc23)CC1`, the results for the inhibition in test [4], in test [5] and in test [6] were 0%, 81% and 56.5%, respectively.

Take `NC1(Cc2ccc(Cl)cc2)CCN(c2ncnc3[nH]ccc23)CC1`: the inhibition was determined as 0% in [7] and 32.5% in test [8].

Turning to `NC1CCN(c2ncnc3[nH]ccc23)CC1`, the inhibition came to 34.5% in test [9], 0.5% in test [10] and 13.5% in test [11].

As to `CNCc1ccc(-c2ncnc3[nH]cnc23)cc1`, the inhibition is 1.5% in test [12], 0% in [13] and 42.5% in test [14].
